Laboratory results reported in ChEMBL document CHEMBL1154239, “Captopril and 6-mercaptopurine: whose SH possesses higher antioxidant ability?” (Eur J Med Chem, 2009).
Active and inactive are the calls of the source. The calls are words filed in the database; no cut-off is given here.

Assays:
[1] = Antioxidant activity against […]-induced DNA damage assessed as inhibition time; format: functional
[2] = Antioxidant activity assessed as ABTS radical scavenging activity; format: functional
[3] = Antioxidant activity assessed as galvinoxyl radical scavenging activity; format: functional
[4] = test system: Erythrocyte; experiment: Antioxidant activity assessed as protection against hemin-induced erythrocytes hemolysis up to 1 uM; format: functional, cell-based
[5] = test system: Radical scavenging activity; experiment: Antioxidant activity assessed as DPPH radical scavenging activity; format: functional
[6] = Antioxidant activity against […]-induced hemolysis of erythrocytes assessed as lag time of inhibition; format: functional, Erythrocyte
[7] = Antioxidant activity assessed as protection against hemin-induced erythrocytes hemolysis at 0.6 uM; format: functional; conditions: Erythrocyte

SMILES | TIME [1] | IC50 [2] | IC50 [3] | Activity [4] | IC50 [5] | Time [6] | inhibition at 0.6 µM [7]
Sc1ncnc2nc[nH]c12 [MERCAPTOPURINE ANHYDROUS] | 3 h | 4.7 µM | 188 µM | inactive | 65 µM | 406 min | –
Cc1c(C)c2c(c(C)c1O)CCC(C)(C(=O)O)O2 (stereo not given) [TROLOX] | – | 11.6 µM | – | – | 22.8 µM | – | –
C[C@H](CS)C(=O)N1CCC[C@H]1C(=O)O [CAPTOPRIL] | 3.38 h | 6.5 µM | 7.1 µM | – | 43 µM | 270 min | 80%
OC[C@H]1O[C@@H](n2cnc3c(S)ncnc32)[C@H](O)[C@@H]1O [THIOINOSINE] | 3.12 h | 3.9 µM | 65 µM | inactive | 180 µM | 482 min | –
